Read-outs that look alike come from different tables or passages of the source.
How the values were obtained:
mouse RORγ = target: T1, mouse RORγ (Mus musculus, UniProt P51450); assay: Luciferase reporter gene assay of inhibitory effect against RORγ transcriptional activity (GAL4-mRORγ plasmid in CHO cells); assay type: cell-based
T1 construct: mouse, NM_011281.2 and from Ile251 to Lys516; expressed in transfected cells; host or cells: CHO cells (transient co-transfection with pG5-Luc reporter)
T1 sequence (P51450 251-516): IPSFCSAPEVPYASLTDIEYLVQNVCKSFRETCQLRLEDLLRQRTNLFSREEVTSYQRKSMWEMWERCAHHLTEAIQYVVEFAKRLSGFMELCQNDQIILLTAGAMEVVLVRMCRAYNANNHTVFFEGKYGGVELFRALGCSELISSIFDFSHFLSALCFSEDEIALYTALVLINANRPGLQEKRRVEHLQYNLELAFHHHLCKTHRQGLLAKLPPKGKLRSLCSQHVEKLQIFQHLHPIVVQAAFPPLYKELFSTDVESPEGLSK
In short: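 Readout is intracellular luciferase after 2-day compound exposure (8 concentrations, 0.1% DMSO) in CHO cells expressing GAL4 fused to mouse RORγ LBD residues Ile251–Lys516 plus pG5-Luc reporter. EC50 fitted from %-of-control; points showing resazurin-detected cytotoxicity dropped.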

human RORγ = target: T2, human RORγ (Homo sapiens, UniProt P51449); assay: Luciferase reporter gene assay of inhibitory effect against RORγ transcriptional activity (GAL4-hRORγ plasmid in CHO cells); assay type: cell-based
T2 construct: human, NM_005060.3 and from Ser253 to Lys518; expressed in transfected cells; host or cells: CHO cells (transient co-transfection with pG5-Luc reporter)
T2 sequence (P51449 253-518): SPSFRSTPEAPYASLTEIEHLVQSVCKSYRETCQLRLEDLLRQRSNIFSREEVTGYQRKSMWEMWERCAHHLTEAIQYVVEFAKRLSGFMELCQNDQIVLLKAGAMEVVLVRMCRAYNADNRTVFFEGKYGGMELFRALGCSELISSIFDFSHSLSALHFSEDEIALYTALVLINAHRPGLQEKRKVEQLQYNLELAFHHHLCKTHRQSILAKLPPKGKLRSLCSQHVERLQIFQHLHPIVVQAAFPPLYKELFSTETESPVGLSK

| SMILES | EC50 (mouse RORγ; read-out: LUC EC50 mRORg) [µM] | EC50 (human RORγ; read-out: LUC EC50 hRORg) [µM] | EC50 (mouse RORγ; read-out: LUC EC50 (μM) mRORg) [µM] | EC50 (human RORγ; read-out: LUC EC50 (μM) hRORg) [µM] |
| --- | --- | --- | --- | --- |
| Cc1ccc(NC(=O)[C@H]2CC(C)(O)C[C@@H]2c2nnc([C@H]3C[C@@H](CC(C)C)C3)n2C2CC2)c(C)c1 (single isomer, unassigned) [Example F-562] | < 3 | < 3 | – | – |
| COc1cc(C)c(Cl)cc1CNC(=O)CCc1nnc(CCC(C)C)n1C1CC1 [Example F-204] | – | – | > 3 | > 3 |
| Cc1ccc(NC(=O)[C@H]2CN(S(C)(=O)=O)C[C@@H]2c2nnc(CCCC(C)(C)C)n2C2CC2)c(C)c1 (racemic) [Example F-397] | – | – | < 3 | < 3 |
| C=CCOc1ccc(-c2nnc(CCC(=O)Nc3ccc(C)cc3C)n2C2CC2)cc1 [Example F-460] | – | – | > 3 | > 3 |
| Cc1c(Cl)cccc1NC(=O)CCc1nnc(COC2CCCCC2)n1C1CC1 [Example F-144] | – | – | < 3 | < 3 |
| COC(=O)N1C[C@H](C(=O)Nc2ccc(C)cc2C)[C@@H](c2nnc(CCCC(C)(C)C)n2C2CC2)C1 (racemic) [Example F-399] | – | – | < 3 | < 3 |
| Cc1ccc(NC(=O)[C@H]2CN(C(=O)C(C)C)C[C@@H]2c2nnc([C@H]3C[C@@H](CC(C)(C)C)C3)n2C2CC2)c(C)c1 [Example F-553] | < 3 | < 3 | – | – |
| CC(=O)N1C[C@H](C(=O)Nc2ccc(C)cc2C)[C@@H](c2nnc(CCCC(C)(C)C)n2C2CC2)C1 (racemic) [Example F-219] | – | – | < 3 | < 3 |
| Cc1ccc(NC(=O)CCc2nnc(C3CC(COC(C)C)C3)n2C2CC2)c(C)c1 (single isomer, unassigned) [Example F-478] | – | – | < 3 | > 3 |
| CC(=O)N1C[C@H](C(=O)Nc2ccc(C)cc2C)[C@@H](c2nnc(C3CC4(CCCCC4)C3)n2C2CC2)C1 [Example F-473] | – | – | < 3 | < 3 |
| Cc1c(Cl)cccc1NC(=O)CC(O)c1nnc(CCC(C)C)n1C1CC1 (racemic) [Example F-164] | – | – | < 3 | > 3 |
| CC(=O)N1C[C@@H](C(=O)Nc2ccc(C)cc2C)[C@H](c2nnc(CCCC(C)(C)C)n2CC(F)(F)F)C1 [Example F-393] | – | – | > 3 | > 3 |
| CC(=O)N1CC(c2noc([C@H]3C[C@@H](CC(C)(C)C)C3)c2C2CC2)[C@@H](C(=O)Nc2ccc(C)cc2Cl)C1 (stereo partly drawn) [Example F-686] | < 3 | < 3 | – | – |
| Cc1ccc(NC(=O)C[C@H](CCC(=O)O)c2noc(-c3cc(CCC(C)(C)C)on3)c2C2CC2)c(Cl)c1 [Example E-22] | – | – | < 3 | < 3 |
| C=CCC(CC(=O)Nc1ccc(C)cc1C)c1nnc(CCCC(C)C)n1C1CC1 (racemic) [Example F-198] | – | – | < 3 | < 3 |
| Cc1cc(F)ccc1NC(=O)C[C@H](CC(=O)NS(C)(=O)=O)c1noc([C@H]2C[C@@H](CC(C)C)C2)c1C1CC1 [Example F-637] | < 3 | < 3 | – | – |
| Cc1c(Cl)cccc1NC(=O)CCc1nnc(CNC(=O)C(C)C)n1C1CC1 [Example F-221] | – | – | > 3 | > 3 |
| CC(C)(C)Cc1cc(-c2noc([C@@H](CCC(=O)O)CC(=O)Nc3ccc(Cl)cc3Cl)c2C2CC2)no1 [Example E-74] | – | – | < 3 | < 3 |
| Cc1ccc(NC(=O)CCc2nnc(-c3cc(CC(C)C)on3)n2C2CC2)c(C)c1 [Example F-405] | – | – | < 3 | < 3 |
| Cc1ccc(NC(=O)[C@H]2CN(C(=O)N(C)C)C[C@@H]2c2nnc(CCCC(C)(C)C)n2C2CC2)c(C)c1 (racemic) [Example F-447] | – | – | < 3 | < 3 |
| CCC(CC)C[C@H]1C[C@@H](c2nnc(CCC(=O)Nc3ccc(C)cc3C)n2C2CC2)C1 [Example F-496] | < 3 | < 3 | – | – |
| CCO[C@@H](CC(=O)Nc1ccc(C)cc1C)c1nnc(-c2cc(CC(C)C)on2)n1C1CC1 [Example F-569] | < 3 | < 3 | – | – |
| Cc1ccc(NC(=O)C[C@H](Cc2nnn[nH]2)c2noc([C@H]3C[C@@H](CC(C)C)C3)c2C2CC2)c(C)c1 [Example F-641] | < 3 | < 3 | – | – |
| Cc1ccc(O)cc1NC(=O)CCc1nnc(CCC(C)C)n1C1CC1 [Example F-192] | – | – | > 3 | > 3 |

| SMILES | EC50 (mouse RORγ; read-out: LUC EC50 mRORg) [µM] | EC50 (human RORγ; read-out: LUC EC50 hRORg) [µM] | EC50 (mouse RORγ; read-out: LUC EC50 (μM) mRORg) [µM] | EC50 (human RORγ; read-out: LUC EC50 (μM) hRORg) [µM] |
| --- | --- | --- | --- | --- |
| Cc1ccc(NC(=O)C[C@H](CCC(=O)O)c2noc3c2CCCC3CCC(C)C)c(Cl)c1 (single isomer, unassigned) [Example F-698] | < 3 | < 3 | – | – |
| Cc1ccc(NC(=O)[C@@H](CCC(=O)O)Cc2noc([C@H]3C[C@@H](CC(C)C)C3)c2C2CC2)c(C)c1 [Example F-671] | < 3 | < 3 | – | – |
| CC(C)C[C@H]1C[C@@H](c2nnc([C@@H](CCO)CC(=O)Nc3cccc4c3CCC4)n2C2CC2)C1 [Example F-543] | < 3 | < 3 | – | – |
| CC(C)CCc1nnc(CCC(=O)Nc2cccc3ccccc23)n1C1CC1 [Example F-81] | – | – | < 3 | < 3 |
| Cc1c(F)cccc1NC(=O)C[C@H](CCO)c1nnc([C@H]2C[C@@H](CC(F)(F)F)C2)n1C1CC1 [Example F-589] | > 3 | > 3 | – | – |
| Cc1ccc(NC(=O)CCc2nnc([C@H]3C[C@@H](CC4CCCC4)C3)n2C2CC2)c(C)c1 [Example F-424] | – | – | < 3 | < 3 |
| Cc1ccc(NC(=O)CCc2nnc(C3CC(COC(C)C)C3)n2C2CC2)c(C)c1 (single isomer, unassigned) [Example F-477] | – | – | < 3 | < 3 |
| Cc1ccc(NC(=O)C[C@H](CCc2nnn[nH]2)c2noc([C@H]3C[C@@H](CC(C)C)C3)c2C2CC2)c(C)c1 [Example F-644, (S)-3-[4-cyclopropyl-5-(3-isobutyl-cyclobutyl)-isoxazol-3-yl]-5-(1H-tetrazole-5-yl)-valeric acid (2,4-dimethyl-phenyl)-amide] | < 3 | < 3 | – | – |
| CCn1c(CCC2CCCCC2)nnc1[C@H]1C[C@@H]1C(=O)Nc1cccc2ccccc12 (racemic) [Example F-36] | – | – | > 3 | > 3 |
| Cc1ccc(NC(=O)CC(Cc2ccccc2)c2nnc(CCCC(C)(C)C)n2C2CC2)c(C)c1 (racemic) [Example F-436] | – | – | < 3 | < 3 |
| Cc1ccc(NC(=O)C[C@H](CCC(=O)O)c2noc(-c3cc(CC(C)(C)C)on3)c2C2CC2)c(Cl)c1 [Example E-06] | – | – | < 3 | < 3 |
| COC1CCC(CCc2nnc(CCC(=O)Nc3cccc(Cl)c3C)n2C2CC2)CC1 (stereo not drawn) [Example F-242] | – | – | < 3 | > 3 |
| Cc1ccc(NC(=O)C[C@H](CCC(=O)O)c2noc(-c3ccc(CC(C)C)o3)c2C2CC2)c(Cl)c1 [Example E-28] | – | – | < 3 | < 3 |
| Cc1ccc(NC(=O)[C@H]2CN(S(=O)(=O)C(C)C)C[C@@H]2c2nnc([C@H]3C[C@@H](CC(C)(C)C)C3)n2C2CC2)c(C)c1 [Example F-552] | < 3 | < 3 | – | – |
| Cc1cc(Cl)ccc1NC(=O)C[C@H](CC(C)C)c1nnc(-c2cc(CCC(C)C)on2)n1C1CC1 [Example F-628] | < 3 | < 3 | – | – |
| CC(=O)N1CC([C@H](CC(=O)Nc2ccc(C)cc2C)c2nnc([C@H]3C[C@@H](CC(C)C)C3)n2C2CC2)C1 [Example F-467] | – | – | > 3 | > 3 |
| Cc1ccc(NC(=O)C[C@H](CCC(=O)O)c2noc(-c3cc(C4CC(CC(C)(C)C)C4)on3)c2C2CC2)c(Cl)c1 (stereo partly drawn) [Example E-17] | – | – | < 3 | < 3 |
| Cc1ccc(NC(=O)C[C@H](CCC(=O)O)c2onc([C@H]3C[C@@H](CC(C)(C)C)C3)c2C2CC2)c(Cl)c1 [Example F-715, (S)-5-(2-Chloro-4-methyl-phenylcarbamoyl)-4-{4-cyclopropyl-3-[3-(2,2-dimethyl-propyl)-cyclobutyl]-isoxazol-5-yl}-pentanoic acid] | < 3 | < 3 | – | – |
| CC(C)(C)C[C@H]1C[C@@H](c2noc([C@@H](CCC(=O)O)CC(=O)Nc3ccc(Cl)cc3Cl)c2C2CC2)C1 [Example F-718] | < 3 | < 3 | – | – |
| O=C(CCc1nnc(C2Cc3ccccc3C2)n1C1CC1)Nc1cccc2ccccc12 [Example F-4] | – | – | < 3 | < 3 |
| Cc1ccc(NC(=O)C[C@H](CCC(=O)O)c2noc(-c3cc(C4CC(F)(F)C4)on3)c2C2CC2)c(Cl)c1 [Example E-47] | – | – | < 3 | < 3 |
| CCOC(=O)CO[C@@H](CC(=O)Nc1ccc(C)cc1C)c1nnc([C@H]2C[C@@H](CC(C)C)C2)n1C1CC1 [Example F-433] | – | – | < 3 | < 3 |
| Cc1c(Cl)cccc1NC(=O)CCc1nnc(CC(C)C(C)C)n1C1CC1 (racemic) [Example F-117] | – | – | < 3 | > 3 |
| Cc1c(Cl)cccc1NC(=O)CCc1nnc(CC(C)C)n1C1CC1 [Example F-107] | – | – | > 3 | > 3 |

Source: patent US20160137639A1, “TRIAZOLE-ISOXAZOLE COMPOUND AND MEDICAL USE THEREOF” (JAPAN TOBACCO INC., priority 2012, published 2016)
